Experiment [1] has as its target T1, ACE2-B^0AT1 complex (Homo sapiens, UniProt Q695T7).
T1 construct: gene SLC6A19; purified complex for cryo-EM; with Angiotensin-converting enzyme 2
The experiment in a line: cryo-EM structure of the complex, […] A. Type of experiment: binding. Particulars: central substrate site between TM1 and TM6.

Experiment [2] concerns the target T1, ACE2-B^0AT1 complex. The experiment in a line: cryo-EM structure of the complex, […] A. Particulars: central substrate site between TM1 and TM6. Type of experiment: binding. The source holds these as a separate data set.
Experiment [3] deals with T2, ACE2-SIT1 complex (Homo sapiens, UniProt Q9NP91, Q247A).
T2 construct: gene SLC6A20; co-expressed in HEK293T cells for currents; purified complex for cryo-EM (two protomers, each ACE2 plus SIT1); with Angiotensin-converting enzyme 2
T2 sequence (Q9NP91 whole entry Q247A): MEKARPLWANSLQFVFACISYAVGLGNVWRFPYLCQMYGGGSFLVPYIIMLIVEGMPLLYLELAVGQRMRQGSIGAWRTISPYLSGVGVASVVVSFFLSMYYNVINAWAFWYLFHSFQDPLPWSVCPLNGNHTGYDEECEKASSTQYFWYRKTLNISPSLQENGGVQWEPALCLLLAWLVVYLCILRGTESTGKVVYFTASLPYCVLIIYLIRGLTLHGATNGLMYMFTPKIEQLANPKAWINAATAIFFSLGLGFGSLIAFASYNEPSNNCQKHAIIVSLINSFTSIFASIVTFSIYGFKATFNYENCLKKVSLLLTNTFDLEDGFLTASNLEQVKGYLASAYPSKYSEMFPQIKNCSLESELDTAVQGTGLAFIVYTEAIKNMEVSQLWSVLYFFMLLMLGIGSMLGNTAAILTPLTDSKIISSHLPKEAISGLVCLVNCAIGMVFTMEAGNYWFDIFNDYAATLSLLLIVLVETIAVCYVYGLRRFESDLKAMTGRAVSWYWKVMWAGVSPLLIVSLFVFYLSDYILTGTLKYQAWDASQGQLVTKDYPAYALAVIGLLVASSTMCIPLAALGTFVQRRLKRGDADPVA
T2 sequence (Q9BYF1 18-805 partner): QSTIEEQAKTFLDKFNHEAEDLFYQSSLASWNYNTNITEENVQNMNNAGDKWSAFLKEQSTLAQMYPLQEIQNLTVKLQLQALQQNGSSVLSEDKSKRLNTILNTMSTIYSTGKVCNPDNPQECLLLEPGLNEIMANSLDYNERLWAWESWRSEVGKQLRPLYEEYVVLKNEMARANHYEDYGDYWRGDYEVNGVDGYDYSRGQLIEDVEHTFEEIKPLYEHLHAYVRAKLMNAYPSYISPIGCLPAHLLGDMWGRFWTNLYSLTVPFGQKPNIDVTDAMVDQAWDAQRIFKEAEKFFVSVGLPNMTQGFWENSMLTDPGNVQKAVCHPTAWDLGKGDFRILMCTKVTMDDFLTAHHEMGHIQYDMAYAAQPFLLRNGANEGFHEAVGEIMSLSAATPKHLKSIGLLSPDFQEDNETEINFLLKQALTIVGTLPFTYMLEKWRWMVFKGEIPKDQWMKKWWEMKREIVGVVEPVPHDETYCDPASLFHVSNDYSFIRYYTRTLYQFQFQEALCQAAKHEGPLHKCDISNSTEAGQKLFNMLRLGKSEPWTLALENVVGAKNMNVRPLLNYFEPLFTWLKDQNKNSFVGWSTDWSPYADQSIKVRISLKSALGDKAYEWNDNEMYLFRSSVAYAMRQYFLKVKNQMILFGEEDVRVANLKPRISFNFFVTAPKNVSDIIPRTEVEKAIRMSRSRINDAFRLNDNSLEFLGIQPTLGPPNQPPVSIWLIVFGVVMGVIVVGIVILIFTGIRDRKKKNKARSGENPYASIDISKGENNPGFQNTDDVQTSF
The experiment in a line: Pro-induced transport current in HEK293T cells co-expressing SIT1 and ACE2. Type of experiment: cell-based.

In experiment [4] the target is T3, ACE2-SIT1 complex (Homo sapiens, UniProt Q9NP91).
T3 construct: gene SLC6A20; co-expressed in HEK293T cells for currents; purified complex for cryo-EM (two protomers, each ACE2 plus SIT1); with Angiotensin-converting enzyme 2
T3 sequence (Q9NP91 whole entry): as the sequence (Q9NP91 whole entry Q247A) above, with A247Q counted along it
T3 sequence (Q9BYF1 18-805 partner): as the sequence (Q9BYF1 18-805 partner) above
The experiment is described as above. Format: cell-based.

By EC50 is commonly meant the concentration needed to bring the measured effect to its halfway point.

T1 sequence (Q695T7 whole entry): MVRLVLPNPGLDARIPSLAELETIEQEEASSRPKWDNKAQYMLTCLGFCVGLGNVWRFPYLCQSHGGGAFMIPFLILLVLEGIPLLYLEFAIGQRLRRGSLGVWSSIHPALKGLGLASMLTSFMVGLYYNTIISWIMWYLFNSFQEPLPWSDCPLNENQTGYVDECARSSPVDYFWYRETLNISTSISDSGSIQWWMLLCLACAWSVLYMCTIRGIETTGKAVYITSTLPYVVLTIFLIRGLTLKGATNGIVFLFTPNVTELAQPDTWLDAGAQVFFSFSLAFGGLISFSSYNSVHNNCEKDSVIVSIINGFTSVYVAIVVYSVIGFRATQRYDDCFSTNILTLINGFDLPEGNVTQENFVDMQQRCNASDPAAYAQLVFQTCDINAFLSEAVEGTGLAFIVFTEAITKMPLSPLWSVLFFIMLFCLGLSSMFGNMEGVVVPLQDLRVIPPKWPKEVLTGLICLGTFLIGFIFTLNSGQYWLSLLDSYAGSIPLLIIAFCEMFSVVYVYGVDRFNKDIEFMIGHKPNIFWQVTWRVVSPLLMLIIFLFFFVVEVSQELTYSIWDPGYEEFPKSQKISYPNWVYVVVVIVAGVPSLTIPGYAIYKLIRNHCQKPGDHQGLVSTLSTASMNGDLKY
T1 sequence (Q9BYF1 18-805 partner): as the sequence (Q9BYF1 18-805 partner) above

Take `NC(=O)CC[C@H](N)C(=O)O` [Gln]: in experiment [1], the “cryo-EM structure of the complex, 3.2 A” value is “ACE2-B^0AT1 complex bound to its native substrates Gln and Met are determined”.
As for `CSCC[C@H](N)C(=O)O` [Met], the “cryo-EM structure of the complex, 3.1 A” value in experiment [2] was “ACE2-B^0AT1 complex bound to its native substrates Gln and Met are determined”.
As for `O=C(O)[C@@H]1CCCN1` [Pro], the EC50 is about 70 µM in experiment [3] and about 2510 µM in experiment [4].

(Values after article PMC10491607, “Structural insight into the substrate recognition and transport mechanism of amino acid transporter complex ACE2-B^0AT1 and ACE2-SIT1” (Cell Discovery, 2023).)
